# Measurements taken from US20030119067A1, “PYK2 related products and methods” (Sugen, Inc., priority 1996, published 2003).
# Where two headings read alike, the source gives them in different places.
# Legend:
# Shc = assay: Tyrosine phosphorylation of Shc in PC12 cells; assay type: cell-based, rat; details: for tyrosine phosphorylation of Shc induced by agonist: DMPP 100 μM, muscarine 1 mM, NGF 100 ng/ml
# Description: Tyrosine phosphorylation of Shc in response to bradykinin, carbachol, PMA and other stimuli was also measured. Quiescent PC12 cells were stimulated for 5 min at 37° C. with bradykinin (1 μM), carbachol (1 mM), KCl (75 mM), PMA (1.6 μM), NGF(100 ng/ml), or left unstimulated (−). The cells were also stimulated with carbachol (1 mM) or potassium chloride (75 mM) in the presence of 3 mM EGTA. Stimulations with DMPP (100 μM) or muscarine (1 mM) were preformed under the same conditions. […] The Shc proteins were immunoprecipitated with anti-Shc antibodies, the immunoprecipitates were resolved by SDS-PAGE (8%), transferred to nitrocellulose and immunoblotted with anti-phosphotyrosine antibodies.
# PYK2 = assay: Tyrosine phosphorylation of PYK2 in PC12 cells (immunoprecipitation, anti-phosphotyrosine immunoblot); assay type: cell-based, rat; details: for tyrosine phosphorylation of PYK2: quiescent PC12 cells, carbachol 1 mM, KCl 75 mM, A23187 6 μM 15 min, bradykinin 1 μM, PMA 1.6 μM
# Kv1.2 potassium channel = assay: Tyrosine phosphorylation of Kv1.2 in transfected 293 cells; assay type: cell-based, human; details: 293 cells co-expressing Kv1.2-HA and PYK2; PMA 1.6 μM, calcium ionophore 6 μM
# PYK2 and Fak = assay: Tyrosine phosphorylation of PYK2 and Fak in transfected 293 cells; assay type: cell-based, human; details: PMA 1.6 μM, calcium ionophore 6 μM
# Description: We examined the possibility whether PYK2 can tyrosine phosphorylate the Kv1.2 channel and regulate its function. In order to test this possibility, we expressed in 293 cells the Kv1.2 protein, Kv1.2 together with PYK2, and as a control Kv1.2 with a kinase negative PYK2 mutant (PKN) or with the protein tyrosine kinase Fak. The cells were grown for 24 hours in medium containing 0.2% serum and then stimulated with PMA(1.6 μM), calcium ionophore (6 μM), or left unstimulated.
# Immunoblotting analysis with phosphotyrosine anti-bodies following immunoprecipitation of PYK2, PKN and Fak by specific antibodies. […] The level of expression of the kinase negative mutant of PYK2 (PKN) was similar to the expression of wild type PYK2 or FAK. […] We next analyzed the tyrosine phosphorylation of Kv1.2 channel in each cell line.
# Embryonic human kidney 293 cells were transiently transfected with different combinations of mammalian expression vectors which direct the synthesis of Kv1.2-HA, PYK2, a kinase negative PYK2 (PKN) or the protein tyrosine kinase Fak. […]
# Tyrosine phosphorylation of each protein was analysed following immunoprecipitation and immunoblotting with anti-phosphotyrosine antibodies. The expression of each protein was determined by immunoblot analysis of total cell lysates from each transfection with anti-PYK2, anti-HA or anti-Fak antibodies.
# PYK-2 = assay: Tyrosine phosphorylation of PYK-2 in NIH3T3 cells overexpressing PYK-2; assay type: cell-based; details: NIH3T3 cells overexpressing PYK-2 / PYK-2-HA; TPA 6 μM, 15 min, 37° C.
# Description: The PYK-2 cDNA cloned in pLSV was cotransfected with pSV2neo into PC12 cells and NIH3T3 in order to establish stable cell lines. G418 resistant colonies were screened by immunoprecipitating and immunoblotting.
# NIH3T3 cell lines were established that overexpress the PYK-2 and the PYK-2-HA protein. […] The level of phosphorylation is not so high.
# Kv1.2 channel [1] = assay: Kv1.2 currents in Xenopus oocytes (two microelectrode voltage clamp); assay type: cell-based, Xenopus laevis
# Description: In vitro capped RNA transcripts of Kv1.2, PYK2 and PKN were synthesized from linearized plasmids DNA templates utilizing the […] mMACHINE kit (Ambion), following the supplier's protocols. The products of the transcription reaction (cRNAs) were diluted in RNAse-free water and stored at −70° C. Expression of the RNAs was done by injection of 50nl of RNA into defolliculated stage V and VI oocytes from Xenopus laevis (Iverson et al., J. Neurosc. 10, 2903-2916, 1990). The injected oocytes were incubated for 2-3 days at 20° C. in L15 solution (1:2 dilution of Gibco's Leibovitz L15 medum in H20, with 50 U/ml nystatin, 0.1 mg/ml gentamycin, 30 mM HEPES buffer, pH 7.3-7.4, filtered through a 0.45 mm membrane) Electrophysiological Recording and analysis. Ionic currents were recorded with a two microelectrode voltage-clamp as described (Iverson et al., supra). The current were low-pass filtered KHz using an 8-pole Bessel filter and stored in a 80286 microcomputer using the pclamp acquisition system (Axon Instruments). The data was analyzed with the clamp fit pro-rams of the pCIamp system (Axon Instruments). All recording were performed at room temperature ([…]). The recording chamber was continually perfused with recording solution. To avoid contamination of the oocyte by Ca+^2-activated Cl^− currents low Cl^− recording solution was used (96 mM Na+, glutamate, 2 mM K^+ glutamate, 0.5 mM CaCl2, 5 mM MgCl2, 5 mM HEPES buffer). The K+ currents were elicited in depolarizinc, steps from −100 to +40 mv in 10 mV increments every 15 seconds.
# Kv1.2 currents from oocytes microinjected with either Kv1.2 mRNA, Kv1.2 and PYK2 mRNAs, or Kv1.2 and a kinase negative mutant of PYK2 mRNAs (PKN). Currents were elicited in response to depolarizing steps from −100 to +30 mV increments from a holding potential of −110 mV. Representative traces of Kv1.2 channels before and after bath application of 100 nM PMA at the annotated time (8 and 20 minutes) in the same cell.
# Suppression of Kv1.2 currents in response to PMA is blocked by a kinase negative PYK2 mutant (PKN). Inhibition of Kv1.2 currents in an oocyte microinjected with Kv1.2 mRNA before and 25 minutes after treatment with PMA at 50 nM or 100 nM concentration. Recordings from an oocyte expression Kv1.2 and PYK2 or Kv1.2 and a kinase negative mutant of PYK2 under the same conditions as described above. The same protocol was utilized in both experiments.
# We asked whether stimulation of PYK2 can suppress Kv1.2 currents. […] Stage V oocytes were microinjected either with Kv1.2 transcripts or with Kv1.2 together with PYK2 or PKN mRNAs. […] The expression of Kv1.2, PYK2 and PKN in the frog oocytes was confirmed by immunoblot analysis with anti-HA or anti-PYK2 antibodies.
# Kv1.2 channel [2] = details: oocytes, after 20 min incubation; as previously shown (Huang et al.); cited from earlier work
# [3] = PC12 cells, 37° C., TPA 1.6 μM 15 min, bradykinin 1 μM 1 min, A23187 2 μM 15 min
# [4] = PC12 cells, pertussis toxin 100 ng/ml for 20 hours
compound,measurement,setting,value
CNC1(C)C2CCC(C2)C1(C)C (centres unmarked) [mecamylamine],effect of antagonist on carbachol-induced tyrosine phosphorylation of Shc,Shc,blocked the effect of carbachol
"[Cl-].[K+] [KCl, potassium chloride]",agonist-induced PYK2 tyrosine phosphorylation on omission of extracellular calcium,"PYK2; PC12 cells, no extracellular calcium or EGTA present",completely abolished PYK2 tyrosine phosphorylation
same,tyrosine phosphorylation of PYK2,PYK2; 37° C.,induces rapid tyrosine phosphorylation of PYK2
C[N+](C)(C)CCOC(N)=O [carbachol],time after applying the agonist at which PYK2 became phosphorylated on tyrosine,"PYK2; PC12 cells, carbachol",5 s
same,tyrosine phosphorylation of PYK2,PYK2; 37° C.,"induces strong, tyrosine phosphorylation of PYK2"
same,time of maximum tyrosine phosphorylation of Shc,Shc; 1 mM carbachol time course,one
same,dependence of agonist-induced tyrosine phosphorylation of Shc on extracellular calcium,Shc; 3 mM EGTA,dependent on the presence of extracellular calcium
CNc1ccc2oc(C[C@H]3O[C@@]4(CC[C@H]3C)O[C@H]([C@H](C)C(=O)c3ccc[nH]3)[C@H](C)C[C@H]4C)nc2c1C(=O)O [calcium ionophore A23187],tyrosine phosphorylation of Kv1.2,Kv1.2 potassium channel,enhanced
same,tyrosine phosphorylation of PYK2 and Fak,PYK2 and Fak,induced a weaker response
same,tyrosine phosphorylation of PYK-2 in response to the stimulus alone,PYK2; [3],undergoes tyrosine phosphorylation
same,tyrosine phosphorylation of PYK2,PYK2; 37° C.,phosphorylated on tyrosine residues
pertussis toxin,effect on the TPA / bradykinin PYK-2 phosphorylation response in combination,PYK2,induced the response of TPA and bradykinin
same,tyrosine phosphorylation of PYK-2 in response to the stimulus alone,PYK2; [3],didn't cause any response alone
same,effect of pretreatment on LPA-induced tyrosine phosphorylation of PYK2,PYK2; [4],significantly inhibited
same,effect of pretreatment on bradykinin or PMA induced activation of PYK2,PYK2; [4],not affected
aFGF: growth factor used to stimulate NIH3T3 cells,tyrosine phosphorylation of PYK-2,PYK-2,undergoes tyrosine phosphorylation
"C[N+]1(C)CCN(c2ccccc2)CC1.[I-] [DMPP, 1,1-dimethyl-4-phenyl piperazinium iodide]",tyrosine phosphorylation of Shc induced by agonist,Shc,induced phosphorylation of Shc
C[C@@H]1O[C@H](C[N+](C)(C)C)C[C@H]1O [muscarine],tyrosine phosphorylation of Shc induced by agonist,Shc,had no effect
PDGF,tyrosine phosphorylation of PYK-2,PYK-2,undergoes tyrosine phosphorylation
EGF: growth factor used to stimulate NIH3T3 cells,tyrosine phosphorylation of PYK-2,PYK-2,undergoes tyrosine phosphorylation
"O=C(O)CN(CCOCCOCCN(CC(=O)O)CC(=O)O)CC(=O)O [EGTA, ethyleneglycol-bis (β-aminoethyl ether)-N,N,N′N′-tetraacetic acid]",effect on carbachol-induced tyrosine phosphorylation of PYK2,"PYK2; PC12 cells, EGTA 3 mM (elimination of extracellular calcium)",completely blocked agonist induced tyrosine phosphorylation of PYK2
same,effect on LPA-induced PYK2 phosphorylation,"PYK2; PC12 cells, medium containing 3 mM EGTA",did not affect
Cholera toxin,effect on the TPA / bradykinin PYK-2 phosphorylation response in combination,PYK2,gave higher signal in combination with TPA and bradykinin
same,tyrosine phosphorylation of PYK-2 in response to the stimulus alone,PYK2,didn't cause phosphorylation of PYK-2 alone
NGF: nerve growth factor,tyrosine phosphorylation of Shc induced by agonist,Shc,induced persistent stimulation of Shc phosphorylation
same,duration of stimulation of Shc phosphorylation after addition,Shc; NGF,five
CN1[C@@H]2CC[C@H]1C[C@@H](OC(=O)C(CO)c1ccccc1)C2 (some centres unmarked) [atropine],effect of antagonist on carbachol-induced tyrosine phosphorylation of Shc,Shc,had no effect
"CCCCCCCCCCCCCC(=O)O[C@@H]1[C@@H](C)[C@@]2(O)[C@@H](C=C(CO)C[C@]3(O)C(=O)C(C)=C[C@@H]23)[C@@H]2C(C)(C)[C@]12OC(C)=O [PMA, phorbol 12-myristate 13-acetate]",tyrosine phosphorylation of Kv1.2,Kv1.2 potassium channel,enhanced
same,tyrosine phosphorylation of PYK2 and Fak,PYK2 and Fak,induced tyrosine phosphorylation
same,inhibition of outward current,"Kv1.2 channel [1]; oocytes coexpressing Kv1.2 and PYK2, 8 min after 100 nM PMA",95%
same,inhibition of outward current,"Kv1.2 channel [1]; oocytes expressing Kv1.2 alone, 8 min after 100 nM PMA",25%
same,effect on Kv1.2 currents,Kv1.2 channel [1]; oocytes treated with PMA,caused inhibition of Kv1.2 currents
same,effect on kinetics and voltage dependence of remaining Kv1.2 currents,"Kv1.2 channel [1]; oocytes, absence or presence of PYK2 expression",did not result in changes in both the kinetics or voltage dependence of the remaining currents
same,agonist-induced PYK2 tyrosine phosphorylation after prolonged PMA treatment (PKC down-regulation),PYK2; PC12 cells pretreated with 100 nM PMA for 12 h,completely abolished the effect of PMA
same,tyrosine phosphorylation of PYK-2 in response to the stimulus alone,PYK2; [3],undergoes tyrosine phosphorylation
same,increase in the phosphorylation state of PYK2 relative to unstimulated cells,"PYK2; PC12 cells, LPA 2.5 mM, bradykinin 1 mM 3 min, PMA 1 mM 10 min, 37° C.",12 fold
same,tyrosine phosphorylation of PYK2,PYK2; 37° C.,induced tyrosine phosphorylation of PYK2
same,inhibition of Kv1.2 currents,Kv1.2 channel [2],80-90%
